Test results reported in patent US20220235051A1, “DI-FLUORO AZEPANES AS HBV CAPSID ASSEMBLY MODULATORS” (priority 2019, published 2022).

The compounds below were run on HBV (assay: HBV replication inhibition assay (BDNA assay) in HepG2.2.15 cells). Conditions: Hepatitis B virus, HepG2.2.15, 144 h, HepG2.2.15 cells, BDNA assay, encapsidated HBV DNA in supernatant at day 6; read-out: HepG2.2.15 EC50 HBV DNA.
Type: cell-based
Description: HBV replication inhibition by the disclosed compounds were determined in cells infected or transfected with HBV or cells with stably integrated HBV, such as HepG2.2.15 cells (Sells et al. 1987). In this example, HepG2.2.15 cells were maintained in cell culture medium containing 10% fetal bovine serum (FBS), Geneticin, L-glutamine, penicillin and streptomycin. HepG2.2.15 cells were seeded in 96-well plates at a density of 40,000 cells/well and were treated with serially diluted compounds at a final DMSO concentration of 0.5% either alone or in combination by adding drugs in a checker box format. Cells were incubated with compounds for three days, after which medium was removed and fresh medium containing compounds was added to cells and incubated for another three days. At day 6, supernatant was removed and treated with DNase at 37° C. for 60 minutes, followed by enzyme inactivation at 75° C. for 15 minutes. Encapsidated HBV DNA was released from the virions and covalently linked HBV polymerase by incubating in lysis buffer (Affymetrix QS0010) containing 2.5 μg proteinase K at 50° C. for 40 minutes. HBV DNA was denatured by addition of 0.2 M NaOH and detected using a branched DNA (BDNA) QuantiGene assay kit according to manufacturer recommendation (Affymetrix). HBV DNA levels were also quantified using qPCR, based on amplification of encapsidated HBV DNA extraction with QuickExtraction Solution (Epicentre Biotechnologies) and amplification of HBV DNA using HBV specific PCR probes that can hybridize to HBV DNA and a fluorescently labeled probe for quantitation. In addition, cell viability of HepG2.2.15 cells incubated with test compounds alone or in combination was determined by using CellTitre-Glo reagent according to the manufacturer protocol (Promega). The mean background signal from wells containing only culture medium was subtracted from all other samples, and percent inhibition at each compound concentration was calculated by normalizing to signals from HepG2.2.15 cells treated with 0.5% DMSO using equation E1.
% inhibition=(DMSOave−Xi)/DMSOave×100% E1
where DMSOave is the mean signal calculated from the wells that were treated with DMSO control (0% inhibition control) and Xi is the signal measured from the individual wells. EC50 values, effective concentrations that achieved 50% inhibitory effect, were determined by non-linear fitting using Graphpad Prism software (San Diego, Calif.) and equation E2.
Y=Ymin+(Ymax−Ymin)/(1+10(Log EC50−X)×HillSlope) E2
where Y represents percent inhibition values and X represents the logarithm of compound concentrations.
Selected disclosed compounds were assayed in the HBV replication assay (BDNA assay), as described above, and a representative group of these active compounds is shown in Table 3.
With `C[C@@H]1Cc2nn3c(c2CN1C(=O)Nc1ccc(F)c(C#N)c1)C(F)(F)CC[C@@H](O)C3` [Example 67, (3R,8R)-N-(3-cyano-4-fluorophenyl)-11,11-difluoro-8-hydroxy-3-methyl-3,4,8,9,10,11-hexahydro-1H-pyrido[4′,3′:3,4]pyrazolo[1,5-a]azepine-2(7H)-carboxamide] the EC50 was 4 nM. Work on `C[C@@H]1Cc2nn3c(c2CN1C(=O)Nc1ccnc(Br)c1F)C(F)(F)CC[C@@H](O)C3` [Example 68, (3R,8R)-N-(2-Bromo-3-fluoropyridin-4-yl)-11,11-di fluoro-8-hydroxy-3-methyl-3,4,8,9,10,11-hexahydro-1H-pyrido[4′,3′:3,4]pyrazolo[1,5-a]azepine-2(7H)-carboxamide] yielded an EC50 of 21 nM. For `C[C@@H]1Cc2nn3c(c2CN1C(=O)Nc1ccc(F)c(C(F)(F)F)c1)C(F)(F)CC[C@@H](O)C3` [Example 69, (3R,8R)-11,11-Difluoro-N-(4-fluoro-3-(trifluoromethyl)phenyl)-8-hydroxy-3-methyl-3,4,8,9,10,11-hexahydro-1H-pyrido[4′,3′:3,4]pyrazolo[1,5-a]azepine-2(7H)-carboxamide], the EC50 was 7 nM. In the case of `C[C@@H]1Cc2nn3c(c2CN1C(=O)Nc1ccnc(C(F)F)c1F)C(F)(F)CC[C@@H](O)C3` [Example 70, (3R,8R)-N-(2-(Difluoromethyl)-3-fluoropyridin-4-yl)-11,11-difluoro-8-hydroxy-3-methyl-3,4,8,9,10,11-hexahydro-1H-pyrido[4′,3′:3,4]pyrazolo[1,5-a]azepine-2(7H)-carboxamide], the EC50 is reported as 31 nM. In the case of `C[C@@H]1Cc2nn3c(c2CN1C(=O)Nc1ccc(F)c(C#N)c1)C(F)(F)CC[C@H](O)C3` [Example 71, (3R,8 S)-N-(3-Cyano-4-fluorophenyl)-11,11-difluoro-8-hydroxy-3-methyl-3,4,8,9,10,11-hexahydro-1H-pyrido[4′,3′:3,4]pyrazolo[1,5-a]azepine-2(7H)-carboxamide], the EC50 is reported as 2 nM. `C[C@@H]1Cc2nn3c(c2CN1C(=O)Nc1ccnc(Br)c1F)C(F)(F)CC[C@H](O)C3` [Example 72, (3R,8S)-N-(2-Bromo-3-fluoropyridin-4-yl)-11,11-difluoro-8-hydroxy-3-methyl-3,4,8,9,10,11-hexahydro-1H-pyrido[4′,3′:3,4]pyrazolo[1,5-a]azepine-2(7H)-carboxamide] was tested, and the EC50 was 9 nM. `C[C@@H]1Cc2nn3c(c2CN1C(=O)Nc1ccc(F)c(C(F)(F)F)c1)C(F)(F)CC[C@H](O)C3` [Example 73, (3R,8S)-11,11-Difluoro-N-(4-fluoro-3-(trifluoromethyl)phenyl)-8-hydroxy-3-methyl-3,4,8,9,10,11-hexahydro-1H-pyrido[4′,3′:3,4]pyrazolo[1,5-a]azepine-2(7H)-carboxamide] was tested, and the EC50 was 2 nM. `C[C@@H]1Cc2nn3c(c2CN1C(=O)Nc1ccnc(C(F)F)c1F)C(F)(F)CC[C@H](O)C3` [Example 74, (3R,8S)-N-(2-(Difluoromethyl)-3-fluoropyridin-4-yl)-11,11-difluoro-8-hydroxy-3-methyl-3,4,8,9,10,11-hexahydro-1H-pyrido[4′,3′:3,4]pyrazolo[1,5-a]azepine-2(7H)-carboxamide] gave an EC50 of 11 nM. In the case of `C[C@@H]1Cc2nn3c(c2CN1C(=O)Nc1ccc(F)c(C#N)c1)C(F)(F)C[C@H](CO)CC3` [Example 131], the EC50 is reported as 3 nM. `C[C@@H]1Cc2nn3c(c2CN1C(=O)Nc1ccc(F)c(C#N)c1)C(F)(F)C(O)CCC3` (stereo partly drawn) [Example 143, (3R)-N-(3-Cyano-4-fluorophenyl)-11,11-difluoro-10-hydroxy-3-methyl-1,3,4,7,8,9,10,11-octahydro-2H-pyrido[4′,3′:3,4]pyrazolo[1,5-a]azepine-2-carboxamide] gave an EC50 of 154 nM.
